ChEMBL document CHEMBL1150992, “Synthesis and preparation of an affinity chromatography column for the purification of cytosolic phospholipase A2” (Bioorg Med Chem Lett, 1995)

Columns and labels:
[1] = Inhibitory activity against cPLA2 was assessed from arachidonic acid (AA) release in cell free assay; format: functional
[2] = Inhibitory activity against cPLA2 was assessed from arachidonic acid (AA) release in U937 cells; format: functional, cell-based; details: U-937

IC50 [1]: 1000 nM
IC50 [2]: 1000 nM
SMILES: CCCc1c(OCCCOc2ccc(C(CCCc3ccccc3)SCCC(=O)O)cc2)ccc(C(C)=O)c1O (configuration not stated)
